Experimental data from publication PMC5026937 (Antiviral research, 2016).

System: A/Switzerland/9715293/2013 (H3N2)
Assay type: cell-based, Influenza A virus

CCC(CC)O[C@@H]1C=C(C(=O)O)C[C@H](N)[C@H]1NC(C)=O [Oseltamivir carboxylate, oseltamivir carboxylate]
EC50 increase on serial passage: more than ten-fold
